The values that follow come from ChEMBL document CHEMBL3400097, “Effect of arginine methylation on the RNA recognition and cellular uptake of Tat-derived peptides” (Bioorg Med Chem, 2015).

The subject of one series is Nucleic Acid. The series can be described thus: Binding affinity to HIV TAR RNA by electrophoretic mobility shift assay in presence of Escherichia coli tRNA. Format: nucleic-acid assay, Human immunodeficiency virus. (Mobility shift assays separate free from complexed probe on a gel.)
Another series relates to Jurkat. The series can be described thus: Cytotoxicity against human Jurkat cells assessed as cell viability at 120 uM after 4 hrs by WST-1 assay. The format is cell-based.

Take `C/N=C(\NC)NCCC[C@H](NC(=O)[C@H](CCC(N)=O)NC(=O)[C@H](CCCNC(=N)N)NC(=O)[C@H](CCCNC(=N)N)NC(=O)[C@H](CCCCN)NC(=O)[C@H](CCCCN)NC(=O)[C@H](CCCNC(=N)N)NC(=O)CNC(=O)[C@H](Cc1ccc(O)cc1)NC(C)=O)C(=O)N[C@@H](CCCNC(=N)N)C(=O)N[C@@H](CCCNC(=N)N)C(N)=O`: in the series with Nucleic Acid, the Kd (in general, the concentration at which binding is half-saturated) is 527 nM. Besides, the Activity entry with Jurkat was “Non-toxic”.
As for `CNC(=N)NCCC[C@H](NC(=O)[C@H](CCCNC(=N)N)NC(=O)[C@H](CCCNC(=N)N)NC(=O)[C@H](CCC(N)=O)NC(=O)[C@H](CCCNC(=N)N)NC(=O)[C@H](CCCNC(=N)N)NC(=O)[C@H](CCCCN)NC(=O)[C@H](CCCCN)NC(=O)[C@H](CCCNC(=N)N)NC(=O)CNC(=O)[C@H](Cc1ccc(O)cc1)NC(C)=O)C(N)=O`, the dissociation constant Kd with Nucleic Acid is 197 nM. Also, in the series on Jurkat, the Activity result is given as “Non-toxic”.
For `CNC(=N)NCCC[C@H](NC(=O)[C@H](CCCCN)NC(=O)[C@H](CCCCN)NC(=O)[C@H](CCCNC(=N)N)NC(=O)CNC(=O)[C@H](Cc1ccc(O)cc1)NC(C)=O)C(=O)N[C@@H](CCCNC(=N)N)C(=O)N[C@@H](CCC(N)=O)C(=O)N[C@@H](CCCNC(=N)N)C(=O)N[C@@H](CCCNC(=N)N)C(=O)N[C@@H](CCCNC(=N)N)C(N)=O`, the Kd in the series with Nucleic Acid was 310 nM. Moreover, in the series on Jurkat, the Activity result is “Non-toxic”.
Consider `CNC(=N)NCCC[C@H](NC(=O)[C@H](CCCNC(=N)N)NC(=O)[C@H](CCCCN)NC(=O)[C@H](CCCCN)NC(=O)[C@H](CCCNC(=N)N)NC(=O)CNC(=O)[C@H](Cc1ccc(O)cc1)NC(C)=O)C(=O)N[C@@H](CCC(N)=O)C(=O)N[C@@H](CCCNC(=N)N)C(=O)N[C@@H](CCCNC(=N)N)C(=O)N[C@@H](CCCNC(=N)N)C(N)=O`, for which the dissociation constant (Kd) with Nucleic Acid came out at 383 nM. Moreover, the Activity entry in the series on Jurkat is given as “Non-toxic”.
In the case of `CC(=O)N[C@@H](Cc1ccc(O)cc1)C(=O)NCC(=O)N[C@@H](CCCNC(=N)N)C(=O)N[C@@H](CCCCN)C(=O)N[C@@H](CCCCN)C(=O)N[C@@H](CCCNC(=N)N)C(=O)N[C@@H](CCCNC(=N)N)C(=O)N[C@@H](CCC(N)=O)C(=O)N[C@@H](CCCNC(=N)N)C(=O)N[C@@H](CCCNC(=N)N)C(=O)N[C@@H](CCCNC(=N)N)C(N)=O`, in the series on Nucleic Acid, the Kd worked out at 260 nM. The Activity result in the series with Jurkat was “Non-toxic”.
The corresponding values for `CC(=O)N[C@@H](Cc1ccc(O)cc1)C(=O)NCC(=O)N[C@@H](CCCNC(=N)N)C(=O)N[C@@H](CCCCN)C(=O)N[C@@H](CCCCN)C(=O)N[C@@H](CCCNC(=N)N(C)C)C(=O)N[C@@H](CCCNC(=N)N)C(=O)N[C@@H](CCC(N)=O)C(=O)N[C@@H](CCCNC(=N)N)C(=O)N[C@@H](CCCNC(=N)N)C(=O)N[C@@H](CCCNC(=N)N)C(N)=O` are 385 nM and “Non-toxic”.
`C/N=C(\NC)NCCC[C@H](NC(=O)[C@H](CCCNC(=N)N)NC(=O)[C@H](CCCCN)NC(=O)[C@H](CCCCN)NC(=O)[C@H](CCCNC(=N)N)NC(=O)CNC(=O)[C@H](Cc1ccc(O)cc1)NC(C)=O)C(=O)N[C@@H](CCC(N)=O)C(=O)N[C@@H](CCCNC(=N)N)C(=O)N[C@@H](CCCNC(=N)N)C(=O)N[C@@H](CCCNC(=N)N)C(N)=O`: the Kd in the series on Nucleic Acid amounted to 576 nM. The Activity entry in the series on Jurkat is “Non-toxic”.
In the case of `CNC(=N)NCCC[C@H](NC(=O)CNC(=O)[C@H](Cc1ccc(O)cc1)NC(C)=O)C(=O)N[C@@H](CCCCN)C(=O)N[C@@H](CCCCN)C(=O)N[C@@H](CCCNC(=N)N)C(=O)N[C@@H](CCCNC(=N)N)C(=O)N[C@@H](CCC(N)=O)C(=O)N[C@@H](CCCNC(=N)N)C(=O)N[C@@H](CCCNC(=N)N)C(=O)N[C@@H](CCCNC(=N)N)C(N)=O`, in the series with Nucleic Acid, the Kd came to 285 nM. The Activity entry in the series on Jurkat is recorded as “Non-toxic”.
Take `CC(=O)N[C@@H](Cc1ccc(O)cc1)C(=O)NCC(=O)N[C@@H](CCCNC(=N)N)C(=O)N[C@@H](CCCCN)C(=O)N[C@@H](CCCCN)C(=O)N[C@@H](CCCNC(=N)N)C(=O)N[C@@H](CCCNC(=N)N(C)C)C(=O)N[C@@H](CCC(N)=O)C(=O)N[C@@H](CCCNC(=N)N)C(=O)N[C@@H](CCCNC(=N)N)C(=O)N[C@@H](CCCNC(=N)N)C(N)=O`: in the series on Nucleic Acid, the Kd is 881 nM. Besides, the Activity result in the series on Jurkat is “Non-toxic”.
The like results for `CC(=O)N[C@@H](Cc1ccc(O)cc1)C(=O)NCC(=O)N[C@@H](CCCNC(=N)N(C)C)C(=O)N[C@@H](CCCCN)C(=O)N[C@@H](CCCCN)C(=O)N[C@@H](CCCNC(=N)N)C(=O)N[C@@H](CCCNC(=N)N)C(=O)N[C@@H](CCC(N)=O)C(=O)N[C@@H](CCCNC(=N)N)C(=O)N[C@@H](CCCNC(=N)N)C(=O)N[C@@H](CCCNC(=N)N)C(N)=O` were, in that order, 279 nM and “Non-toxic”.
As to `C/N=C(\NC)NCCC[C@H](NC(=O)[C@H](CCCCN)NC(=O)[C@H](CCCCN)NC(=O)[C@H](CCCNC(=N)N)NC(=O)CNC(=O)[C@H](Cc1ccc(O)cc1)NC(C)=O)C(=O)N[C@@H](CCCNC(=N)N)C(=O)N[C@@H](CCC(N)=O)C(=O)N[C@@H](CCCNC(=N)N)C(=O)N[C@@H](CCCNC(=N)N)C(=O)N[C@@H](CCCNC(=N)N)C(N)=O`, the Kd in the series with Nucleic Acid is 328 nM. For the same compound, in the series with Jurkat, the Activity result is recorded as “Non-toxic”.
The corresponding values for `CC(=O)N[C@@H](Cc1ccc(O)cc1)C(=O)NCC(=O)N[C@@H](CCCNC(=N)N)C(=O)N[C@@H](CCCCN)C(=O)N[C@@H](CCCCN)C(=O)N[C@@H](CCCNC(=N)N)C(=O)N[C@@H](CCCNC(=N)N)C(=O)N[C@@H](CCC(N)=O)C(=O)N[C@@H](CCCNC(=N)N)C(=O)N[C@@H](CCCNC(=N)N(C)C)C(=O)N[C@@H](CCCNC(=N)N)C(N)=O` are 404 nM and “Non-toxic”.
For `CNC(=N)NCCC[C@H](NC(=O)[C@H](CCC(N)=O)NC(=O)[C@H](CCCNC(=N)N)NC(=O)[C@H](CCCNC(=N)N)NC(=O)[C@H](CCCCN)NC(=O)[C@H](CCCCN)NC(=O)[C@H](CCCNC(=N)N)NC(=O)CNC(=O)[C@H](Cc1ccc(O)cc1)NC(C)=O)C(=O)N[C@@H](CCCNC(=N)N)C(=O)N[C@@H](CCCNC(=N)N)C(N)=O`, the Kd in the series with Nucleic Acid came to 380 nM. The Activity result in the series with Jurkat is given as “Non-toxic”.
With `C/N=C(\NC)NCCC[C@H](NC(=O)CNC(=O)[C@H](Cc1ccc(O)cc1)NC(C)=O)C(=O)N[C@@H](CCCCN)C(=O)N[C@@H](CCCCN)C(=O)N[C@@H](CCCNC(=N)N)C(=O)N[C@@H](CCCNC(=N)N)C(=O)N[C@@H](CCC(N)=O)C(=O)N[C@@H](CCCNC(=N)N)C(=O)N[C@@H](CCCNC(=N)N)C(=O)N[C@@H](CCCNC(=N)N)C(N)=O`, in the series on Nucleic Acid, the Kd stood at 219 nM. The Activity result with Jurkat is “Non-toxic”.
Take `CNC(=N)NCCC[C@H](NC(=O)[C@H](CCCNC(=N)N)NC(=O)[C@H](CCC(N)=O)NC(=O)[C@H](CCCNC(=N)N)NC(=O)[C@H](CCCNC(=N)N)NC(=O)[C@H](CCCCN)NC(=O)[C@H](CCCCN)NC(=O)[C@H](CCCNC(=N)N)NC(=O)CNC(=O)[C@H](Cc1ccc(O)cc1)NC(C)=O)C(=O)N[C@@H](CCCNC(=N)N)C(N)=O`: the Kd in the series with Nucleic Acid was 219 nM. Also, the Activity result in the series with Jurkat is listed as “Non-toxic”.
Consider `C/N=C(\NC)NCCC[C@H](NC(=O)[C@H](CCCNC(=N)N)NC(=O)[C@H](CCC(N)=O)NC(=O)[C@H](CCCNC(=N)N)NC(=O)[C@H](CCCNC(=N)N)NC(=O)[C@H](CCCCN)NC(=O)[C@H](CCCCN)NC(=O)[C@H](CCCNC(=N)N)NC(=O)CNC(=O)[C@H](Cc1ccc(O)cc1)NC(C)=O)C(=O)N[C@@H](CCCNC(=N)N)C(N)=O`, for which the Kd in the series with Nucleic Acid came to 317 nM. Further, in the series with Jurkat, the Activity result was “Non-toxic”.
In the case of `C/N=C(\NC)NCCC[C@H](NC(=O)[C@H](CCCNC(=N)N)NC(=O)[C@H](CCCNC(=N)N)NC(=O)[C@H](CCC(N)=O)NC(=O)[C@H](CCCNC(=N)N)NC(=O)[C@H](CCCNC(=N)N)NC(=O)[C@H](CCCCN)NC(=O)[C@H](CCCCN)NC(=O)[C@H](CCCNC(=N)N)NC(=O)CNC(=O)[C@H](Cc1ccc(O)cc1)NC(C)=O)C(N)=O`, the Kd in the series on Nucleic Acid was found to be 262 nM. In the series with Jurkat, the Activity result is given as “Non-toxic”.
